Results on three molecules are retold here after patent publication US9394549B2, “Method for producing useful chemical substance from terephthalic acid potassium salt” (GENARIS, INC., priority 2012, dated 2016).

Data set [1] in a line: Solubility of terephthalic acid salts in water. Format: physicochemical. The procedure:
2.99 g (0.018 mol) of terephthalic acid (in a form of powder, manufactured by Sigma-Aldrich Japan; hereinafter, unless otherwise specified, reagents used were ones manufactured by Sigma-Aldrich Japan) and 0.036 mol of potassium hydroxide (in a form of granule) were put in a 50 mL-glass beaker. Distilled water was filled to obtain a volume of about 15 mL. The resulting mixture was covered with aluminum foil as a lid, heated at 50° C. for 60 minutes while stirred by a hot stirrer (manufactured by AS ONE Corporation), and allowed to cool to 30° C. After stirring at 30° C. for 120 minutes or more and confirming the precipitate remained in the solution, 1 mL of the solution was collected and subjected to centrifugation using a high speed micro centrifuge (manufactured by Tomy Seiko Co., Ltd.) (30° C., 14000 rpm (17800 g), 30 seconds) to collect the supernatant.
The concentration of terephthalic acid in this supernatant was measured and regarded as the solubility of dipotassium terephthalate. With regard to the measurement of the concentration of terephthalic acid, the sample was diluted 16,000-fold with 2.5% aqueous acetonitrile solution and analyzed in separation conditions of Table 1 using high performance liquid chromatography (Waters Corporation, LCT Premier XE). Thereafter, the concentration was calculated on the basis of a ratio of the area of terephthalic acid peaks using aqueous terephthalic acid solution with a known concentration as a control.

In data set [2] the test system is Escherichia coli M7032 (pUXPEaLT_tpaA_tpaK_Pm_fucO_I7L_aldA) strain. The experiment in a line: Decomposition of ethylene glycol during production of TPA-DHD. Format: cell-based. The conditions noted are these: raw material dipotassium terephthalate with ethylene glycol, final concentration 72 mM.
Data set [3] has as its system Escherichia coli K-12 M7032 strain. The experiment in a line: Decomposition of ethylene glycol during production of TPA-DHD, control strain. Format: cell-based. The conditions noted are these: raw material dipotassium terephthalate with ethylene glycol, final concentration 72 mM. The procedure:
Subsequently, in the same manner as described in Example 1, Escherichia coli M7032 (pUXPEaLT_tpaA_tpaK_Pm_fucO_I7L_aldA) strain and Escherichia coli K-12 M7032 strain which serves as a control were cultured in a mini jar fermentor. Concurrently with administration of dipotassium terephthalate which serves as a raw material, 0.278 ml (final concentration 72 mM) of ethylene glycol was placed.
Sampling was carried out 48 hours after the start of main culture. Each of the samples was subjected to analysis in conditions shown in Table 1 by an LC-TOF type mass spectrometer (Waters Corporation, LCT Premier XE). Identification of terephthalic acid was carried out with a combination of retention time of high performance liquid chromatography and an accurate mass value from the mass spectrometer, comparing to a standard sample of terephthalic acid. Among substances appeared as terephthalic acid decreased, TPA-DHD was identified on the basis of a predicted accurate mass value of TPA-DID. Further, quantification of TPA-DHD was carried out on the basis of a calibration curve prepared from an amount of terephthalic acid decreased and an increase in the peak area of TPA-DHD. […]

Where two headings read alike, the source gives them in different places.

As usually defined, the solubility is the concentration that dissolves in the medium under given conditions. On to `N.O=C([O-])c1ccc(C(=O)O)cc1.[Na+]` [1-sodium 4-ammonium terephthalate, reference compound], for which, in data set [1], the solubility came to 612 mM and the “solubility in water at 30° C.” value was “about 0.61 M”.
As for `N.N.O=C(O)c1ccc(C(=O)O)cc1` [Diammonium terephthalate, diammonium terephthalate, reference compound], the solubility in data set [1] (30 °C, water, thermodynamic from solid, in water at 30° C., rounded values of the summary, read-out: solubility in water at 30° C.) is about 510 mM; in data set [1] (30 °C, water, thermodynamic from solid, in water, 30° C., read-out: Solubility) it was 512 mM.
With `O=C(O)C1=CC(O)C(O)(C(=O)O)C=C1` (stereo not drawn) [TPA-DHD, terephthalate 1,2-cis-dihydrodiol], the “amount of TPA-DHD produced 48 hours after the start of the culture” value in data set [2] was 10.5 g/L; in data set [3], 11.1 g/L.
